Assay results: patent US4081548A, “Antibiotics” (Merck & Co., Inc., priority 1976, dated 1978)

Assays:
Assay type in all cases: cell-based
Bacillus subtilis 964 = assay: Bauer-Kirby disc diffusion (2 mm agar depth), zone of inhibition, Table 1; details: preparation III, 6.6 μg antibiotic/disc, strain resistance: --, read-out: diameter of the zone of inhibition
Source text: (§1) Thienamycin is further characterized by the following antibiotic spectrum profile. The test employs the Bauer-Kirby disc diffusion method modified only in respect to the 2 mm. agar depth employed here.

[1] = system: Enterobacter cloacae 2646; assay: as above; details: preparation III, 6.6 μg antibiotic/disc, strain resistance: P, C (penicillins, cephalosporins), read-out: diameter of the zone of inhibition
Source text: as §1

[2] = system: Enterobacter cloacae 2647; assay: as above; details: preparation III, 6.6 μg antibiotic/disc, strain resistance: --, read-out: diameter of the zone of inhibition
Source text: as §1

Escherichia coli 2017 = assay: as above; details: preparation III, 6.6 μg antibiotic/disc, strain resistance: --, read-out: diameter of the zone of inhibition
Source text: as §1

Escherichia coli 2482 = assay: as above; details: preparation III, 6.6 μg antibiotic/disc, strain resistance: --, read-out: diameter of the zone of inhibition
Source text: as §1

Escherichia coli 2964 = assay: as above; details: preparation III, 6.6 μg antibiotic/disc, strain resistance: P, C (penicillins, cephalosporins), read-out: diameter of the zone of inhibition
Source text: as §1

Klebsiella 2921 = assay: as above; details: preparation III, 6.6 μg antibiotic/disc, strain resistance: P (penicillins), read-out: diameter of the zone of inhibition
Source text: as §1

Klebsiella 2922 = assay: as above; details: preparation III, 6.6 μg antibiotic/disc, strain resistance: P (penicillins), read-out: diameter of the zone of inhibition
Source text: as §1

Proteus mirabilis 2830 = assay: as above; details: preparation III, 6.6 μg antibiotic/disc, strain resistance: P, C (penicillins, cephalosporins), read-out: diameter of the zone of inhibition
Source text: as §1

Proteus morganii 2833 = assay: as above; details: Morganella morganii, preparation III, 6.6 μg antibiotic/disc, strain resistance: P, C (penicillins, cephalosporins), read-out: diameter of the zone of inhibition
Source text: as §1

[3] = system: Pseudomonas aeruginosa 2616; assay: as above; details: preparation III, 6.6 μg antibiotic/disc, strain resistance: P, C (penicillins, cephalosporins), read-out: diameter of the zone of inhibition
Source text: as §1

[4] = system: Pseudomonas aeruginosa 2824; assay: as above; details: preparation III, 6.6 μg antibiotic/disc, strain resistance: P, C (penicillins, cephalosporins), read-out: diameter of the zone of inhibition
Source text: as §1

[5] = system: Pseudomonas aeruginosa 3210; assay: as above; details: preparation III, 6.6 μg antibiotic/disc, strain resistance: P, C (penicillins, cephalosporins), read-out: diameter of the zone of inhibition
Source text: as §1

Serratia 2840 = assay: as above; details: preparation III, 6.6 μg antibiotic/disc, strain resistance: P, C (penicillins, cephalosporins), read-out: diameter of the zone of inhibition
Source text: as §1

[6] = system: Staphylococcus aureus 2314; assay: as above; details: preparation III, 6.6 μg antibiotic/disc, strain resistance: P (penicillins), read-out: diameter of the zone of inhibition
Source text: as §1

[7] = system: Staphylococcus aureus 2985; assay: as above; details: preparation III, 6.6 μg antibiotic/disc, strain resistance: --, read-out: diameter of the zone of inhibition
Source text: as §1

[8] = system: Streptococcus faecalis 755; assay: as above; details: Enterococcus faecalis, preparation III, 6.6 μg antibiotic/disc, strain resistance: --, read-out: diameter of the zone of inhibition
Source text: as §1

[9] = system: Staphylococcus aureus ATCC 6538P; assay: disc-diffusion assay of antibacterial activity (5 ml plates); details: estimated or calculated potency; one unit = same inhibition as 1 μg. of cephalothin/ml.
Experimental: Assays of antibacterial activity are run according to the following disc-diffusion procedure unless otherwise indicated. The assay plates are prepared in the following manner. An overnight growth of the assay organism, Staphylococcus aureus ATCC 6538P, in nutrient broth plus 0.2% yeast extract is diluted with nutrient broth plus 0.2% yeast extract to a suspension having 55% transmittance at a wavelength of 660 mμ. This suspension is added to Difco nutrient agar supplemented with 2.0 g./l. Difco yeast extract, at 47° C. to 48° C., to make a composition containing 33.2 ml. of the suspension per liter of agar. Five ml. of this suspension is poured into petri dishes of 85 mm. diameter, and these plates are chilled and held at 4° C. until used (5 day maximum).
Samples of the antibiotic to be assayed are diluted to an appropriate concentration in phosphate buffer at pH 7. Filter-paper discs, 0.5-inch in diameter, are dipped into the test solution and placed on the surface of the assay plate; two discs for each sample are normally placed on one plate opposite to one another. The plates are incubated overnight at 37° C. and the zone of inhibition is measured as mm. diameter. The zone of inhibition measured in mm. determines relative potencies or, when compared with a purified reference standard such as cephalothin, the potency of antibiotic in units/ml. The unit of activity reported in Examples 4 through 7 is based on cephalothin standard solutions of 8, 4, 2 and 1 μg./ml. One unit is defined as the amount which calculates to produce the same inhibition as 1 μg. of cephalothin/ml. that zone of inhibition being between 16 and 21 mm. diameter.

C[C@@H](O)[C@H]1C(=O)N2C(C(=O)O)=C(SCCN)C[C@H]12 [III, thienamycin]
zone of inhibition at 6.6 µg/disc (Bacillus subtilis 964): 46 mm | zone of inhibition at 6.6 µg/disc [1]: 25 mm | zone of inhibition at 6.6 µg/disc [2]: 27.5 mm | zone of inhibition at 6.6 µg/disc (Escherichia coli 2017): 28 mm | zone of inhibition at 6.6 µg/disc (Escherichia coli 2482): 27 mm | zone of inhibition at 6.6 µg/disc (Escherichia coli 2964): 27 mm | zone of inhibition at 6.6 µg/disc (Klebsiella 2921): 25 mm | zone of inhibition at 6.6 µg/disc (Klebsiella 2922): 25 mm | zone of inhibition at 6.6 µg/disc (Proteus mirabilis 2830): 21 mm | zone of inhibition at 6.6 µg/disc (Proteus morganii 2833): 20 mm | zone of inhibition at 6.6 µg/disc [3]: 20.5 mm | zone of inhibition at 6.6 µg/disc [4]: 30 mm | zone of inhibition at 6.6 µg/disc [5]: 25 mm | zone of inhibition at 6.6 µg/disc (Serratia 2840): 23 mm | zone of inhibition at 6.6 µg/disc [6]: 38 mm | zone of inhibition at 6.6 µg/disc [7]: 38 mm | zone of inhibition at 6.6 µg/disc [8]: 24 mm | potency (estimated / calculated) [9]: ~31,000 units/mg.
